Measurements taken from US5760241A, “Thiol derivatives with metallopeptidase inhibitory activity” (priority 1996, dated 1998).

Key:
[1] = biological target: T1, ACE (purified by lung rabbit, EC 3.4.15.1) (Oryctolagus cuniculus, UniProt P12822); assay: In vitro ACE-inhibitory activity (FAPGG substrate, spectrophotometric); format: biochemical; conditions: 37° C.; FAPGG 0.8 mM
T1 construct: purchased SIGMA; host or cells: rabbit lung
T1 sequence (P12822 34-1310): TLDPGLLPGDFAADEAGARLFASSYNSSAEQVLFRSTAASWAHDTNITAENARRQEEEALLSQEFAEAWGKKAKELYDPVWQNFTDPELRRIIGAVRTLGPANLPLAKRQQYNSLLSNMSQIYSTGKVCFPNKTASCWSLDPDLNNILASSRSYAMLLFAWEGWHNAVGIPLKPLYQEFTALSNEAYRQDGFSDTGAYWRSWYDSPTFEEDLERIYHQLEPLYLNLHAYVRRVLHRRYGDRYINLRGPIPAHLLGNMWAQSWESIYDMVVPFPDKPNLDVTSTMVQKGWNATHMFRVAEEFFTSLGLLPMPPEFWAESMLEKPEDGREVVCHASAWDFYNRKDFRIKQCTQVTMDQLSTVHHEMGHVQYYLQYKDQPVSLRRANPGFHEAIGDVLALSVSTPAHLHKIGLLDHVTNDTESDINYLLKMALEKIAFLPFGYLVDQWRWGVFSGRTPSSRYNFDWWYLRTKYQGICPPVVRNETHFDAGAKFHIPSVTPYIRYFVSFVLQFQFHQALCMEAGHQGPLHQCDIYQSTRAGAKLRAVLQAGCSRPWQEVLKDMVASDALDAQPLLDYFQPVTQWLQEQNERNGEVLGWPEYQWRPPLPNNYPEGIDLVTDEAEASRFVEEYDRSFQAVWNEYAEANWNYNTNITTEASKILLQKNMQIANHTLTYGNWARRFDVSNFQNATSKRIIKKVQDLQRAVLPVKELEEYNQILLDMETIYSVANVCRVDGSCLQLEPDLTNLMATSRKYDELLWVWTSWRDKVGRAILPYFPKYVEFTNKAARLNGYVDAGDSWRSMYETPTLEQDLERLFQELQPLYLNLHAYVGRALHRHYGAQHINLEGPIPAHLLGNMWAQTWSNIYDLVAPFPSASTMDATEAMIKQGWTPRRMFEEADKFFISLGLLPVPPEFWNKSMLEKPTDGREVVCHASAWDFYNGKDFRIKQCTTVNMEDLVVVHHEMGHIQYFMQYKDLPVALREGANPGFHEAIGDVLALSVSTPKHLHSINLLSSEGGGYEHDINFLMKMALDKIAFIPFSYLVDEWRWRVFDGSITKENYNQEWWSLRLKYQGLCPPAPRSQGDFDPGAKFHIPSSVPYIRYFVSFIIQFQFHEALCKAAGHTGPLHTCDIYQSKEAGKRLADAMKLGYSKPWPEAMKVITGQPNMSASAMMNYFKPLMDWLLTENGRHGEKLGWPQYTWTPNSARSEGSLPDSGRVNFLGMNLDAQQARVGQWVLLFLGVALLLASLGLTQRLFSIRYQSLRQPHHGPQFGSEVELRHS
Protocol: (§1) b) ACE-inhibitory activity
The ACE-inhibitory activity was evaluated according to the method reported in the literature by B. Holmquist et al., in Analytical Biochemistry 95, 540-548 (1979).
[…] of ACE (250 mU/ml purified by lung rabbit, EC 3.4.15.1 SIGMA) were preincubated with 50 μl of the compound of formula I or of the comparison compound in thermostated cuvettes at 37° C.
The reaction was started by adding furylacryloylphenylalanylglycylglycine 0.8 mM (FAPGG-SIGMA).
Contemporaneously, by using a Beckman DU-50 spectrophotometer provided with a program for calculating delta A/minutes and regression coefficients of the enzyme kinetics curves, the absorbance at 340 nm was recorded in continuo for 5 minutes.
The percentage of the enzyme inhibition in the preparations treated with the compounds of formula I or with the comparative compounds with respect to the untreated preparations was expressed as IC50 (nM) value.

NEP (SHR kidneys) = assay: Ex vivo NEP-inhibitory activity in kidneys of treated SHR; set-up: species or system spontaneously hypertensive rats (SHR); conditions: i.v. 0.64 μmoles/kg, 5 minutes
Protocol: (§2) The ex vivo ACE/NEP-inhibitory activity of the compounds of formula I, in particular, was evaluated by considering the enzymatic activity in tissue homogenates (lung and kidney for the ACE- and NEP-inhibitory activity, respectively) from spontaneously hypertensive rats (SHR), treated with the tested compounds by intravenous or oral route.
a) NEP-inhibitory activity
The ex vivo NEP-inhibitory activity was evaluated according to the procedure reported in the literature by M. Orlowsky et al., in Biochemistry 1981, 20, 4942-4950.
The inhibitory activity of the compounds of formula I was evaluated in kidneys of spontaneously hypertensive rats (SHR), 5 minutes after i.v. injection (0.6, 0.64 and 21 μmoles/kg) and 30 minutes, 60 minutes and 4 hours after oral administration (30 μmoles/kg) of the tested compounds.
After the removal of the kidneys from SHR, the renal tissue was homogenized and incubated for 15 minutes at 37° C. in the presence of Glutaryl-Ala-Ala-Phe-2-naphthylamide (GAAP), as a substrate, and aminopeptidase M at pH 7.6.
The reaction was stopped by adding an aqueous solution at 10% of trichloroacetic acid.
The released 2-naphthylamine was determined by adding fast garnet dye (2 ml).
Enzyme reaction rates were determined by measuring the increase in the optical density at 524 nm (OD524) with respect to a standard obtained with 2-naphthylamine complexed with fast garnet.
The NEP-inhibitory activity of the tested compounds was expressed as percentage of NEP-inhibition in SHR kidneys.
(§3) As an example, the percentages of basal enzymatic activity obtained in the ex vivo tests after the administration of compounds 29 and 41, as representative compounds of formula I, and of the comparison compounds R-1, R-2, R-3 and R-4 are reported in the following table 2.

ACE (SHR lungs) = assay: Ex vivo ACE-inhibitory activity in lungs of treated SHR; set-up: species or system spontaneously hypertensive rats (SHR); conditions: i.v. 0.64 μmoles/kg, 5 minutes
Protocol: as §2, §1
The ex vivo ACE-inhibitory activity was evaluated by using a radiometric assay method, as reported in the literature by J. W. Ryan et al. in Biochem. J. (1977), 167, 501-504.
The inhibitory activity of the compounds of formula I was evaluated in lungs of spontaneously hypertensive rats (SHR), 5 minutes after i.v. injection (0.6, 0.64 and 21 μmoles/kg) and 30 minutes, 60 minutes and 4 hours after oral administration (30 μmoles/kg) of the tested compounds.
After the removal of the lungs from SHR, the lung tissue was homogenized and incubated for 2 hours at 37° C. in the presence of [^3 H]Hyp-Gly-Gly, as a substrate.
The reaction was stopped by adding hydrochloric acid.
The released radiolabelled hyppuric acid was extracted with ethyl acetate and counted by liquid scintillation spectrometry, according to conventional methods.
The ACE-inhibitory activity of the tested compounds was expressed as percentage of ACE-inhibition in SHR lungs.
as §3

What does the source list for O=C(N[C@@H](Cc1ccc(-c2ccccc2)cc1)C(=O)O)C(CS)Cc1ccccc1 (stereo partly drawn) [compound 41]?
IC50 [1]: 5 nM; NEP-inhibition (kidneys), 5 minutes (NEP (SHR kidneys)): 20%; ACE-inhibition (lungs), 5 minutes (ACE (SHR lungs)): 49%
